Source: ChEMBL document CHEMBL4411321, “Discovery of Potent, Selective, and Orally Bioavailable Estrogen-Related Receptor-γ Inverse Agonists To Restore the Sodium Iodide Symporter Function in Anaplastic Thyroid Cancer” (J Med Chem, 2019)

How the values were obtained:
[1] = target: T1, Estrogen-related receptor gamma (Homo sapiens, UniProt P62508)
T1 sequence (P62508 whole entry): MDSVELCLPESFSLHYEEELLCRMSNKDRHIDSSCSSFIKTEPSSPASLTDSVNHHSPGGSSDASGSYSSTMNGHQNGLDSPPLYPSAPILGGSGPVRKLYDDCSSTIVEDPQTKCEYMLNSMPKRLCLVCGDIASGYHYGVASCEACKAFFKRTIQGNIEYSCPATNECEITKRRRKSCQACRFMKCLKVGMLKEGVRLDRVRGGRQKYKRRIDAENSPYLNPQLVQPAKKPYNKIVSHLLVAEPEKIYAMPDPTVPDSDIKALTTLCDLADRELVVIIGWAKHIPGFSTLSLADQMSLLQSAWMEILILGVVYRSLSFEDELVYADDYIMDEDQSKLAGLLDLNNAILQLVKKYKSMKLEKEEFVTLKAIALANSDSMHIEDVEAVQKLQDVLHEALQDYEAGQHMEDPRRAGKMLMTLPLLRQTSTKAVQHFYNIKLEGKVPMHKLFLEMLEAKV

[2] = target: CYP2D6 (Homo sapiens, UniProt P10635); assay: Inhibition of CYP2D6 in human liver microsomes assessed as reduction in dextromethorphan O-demethylase activity at 10 uM preincubated for 5 mins followed by NADPH addition and measured after 15 mins by LC-MS/MS analysis relative to control; format: ADME; conditions: probe dextromethorphan (O-demethylation)
CYP2D6, sequence (P10635 whole entry): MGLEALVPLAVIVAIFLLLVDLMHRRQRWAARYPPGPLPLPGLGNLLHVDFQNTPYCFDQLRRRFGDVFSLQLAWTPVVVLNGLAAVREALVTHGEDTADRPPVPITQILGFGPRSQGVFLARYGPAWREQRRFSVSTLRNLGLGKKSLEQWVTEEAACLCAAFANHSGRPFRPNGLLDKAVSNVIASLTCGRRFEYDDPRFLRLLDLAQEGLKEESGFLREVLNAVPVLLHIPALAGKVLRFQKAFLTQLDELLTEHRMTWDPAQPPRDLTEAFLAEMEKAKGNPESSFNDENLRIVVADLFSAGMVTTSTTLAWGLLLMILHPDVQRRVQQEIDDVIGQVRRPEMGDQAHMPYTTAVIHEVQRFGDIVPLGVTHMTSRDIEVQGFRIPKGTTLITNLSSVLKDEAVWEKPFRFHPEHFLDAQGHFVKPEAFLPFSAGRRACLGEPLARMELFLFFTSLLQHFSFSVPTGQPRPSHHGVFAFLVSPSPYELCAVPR

[3] = Metabolic stability in human liver microsomes assessed as compound remaining at 1 uM after 30 mins in presence of NADPH regeneration system by LC-MS/MS analysis; format: ADME, Microsome; conditions: read-out: Stability
[4] = target: T2, Estrogen receptor (Homo sapiens, UniProt P03372)
T2 sequence (P03372 whole entry): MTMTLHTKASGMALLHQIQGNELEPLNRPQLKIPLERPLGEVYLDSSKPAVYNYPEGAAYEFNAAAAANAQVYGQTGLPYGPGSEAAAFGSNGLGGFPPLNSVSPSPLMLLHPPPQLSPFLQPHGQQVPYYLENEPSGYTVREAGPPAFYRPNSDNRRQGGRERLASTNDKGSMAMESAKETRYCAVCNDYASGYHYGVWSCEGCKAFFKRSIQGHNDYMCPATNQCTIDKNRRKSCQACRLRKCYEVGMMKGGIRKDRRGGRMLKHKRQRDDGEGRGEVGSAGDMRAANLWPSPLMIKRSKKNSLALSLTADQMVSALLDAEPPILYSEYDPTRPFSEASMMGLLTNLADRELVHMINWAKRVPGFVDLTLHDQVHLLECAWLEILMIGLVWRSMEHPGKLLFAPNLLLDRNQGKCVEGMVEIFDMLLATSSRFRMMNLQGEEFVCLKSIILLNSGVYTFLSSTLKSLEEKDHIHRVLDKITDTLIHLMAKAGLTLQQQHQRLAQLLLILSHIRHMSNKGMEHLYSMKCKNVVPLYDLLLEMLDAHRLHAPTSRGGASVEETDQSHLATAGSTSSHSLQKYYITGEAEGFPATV

[5] = Metabolic stability in dog liver microsomes assessed as compound remaining at 1 uM after 30 mins in presence of NADPH regeneration system by LC-MS/MS analysis; format: ADME, Canis lupus familiaris, Microsome; conditions: read-out: Stability
[6] = target: CYP3A4 (Homo sapiens, UniProt P08684); assay: Inhibition of CYP3A4 in human liver microsomes assessed as reduction in midazolam 1-hydroxylase activity at 10 uM preincubated for 5 mins followed by NADPH addition and measured after 15 mins by LC-MS/MS analysis relative to control; format: ADME; conditions: probe midazolam (1-hydroxylation)
CYP3A4, sequence (P08684 whole entry): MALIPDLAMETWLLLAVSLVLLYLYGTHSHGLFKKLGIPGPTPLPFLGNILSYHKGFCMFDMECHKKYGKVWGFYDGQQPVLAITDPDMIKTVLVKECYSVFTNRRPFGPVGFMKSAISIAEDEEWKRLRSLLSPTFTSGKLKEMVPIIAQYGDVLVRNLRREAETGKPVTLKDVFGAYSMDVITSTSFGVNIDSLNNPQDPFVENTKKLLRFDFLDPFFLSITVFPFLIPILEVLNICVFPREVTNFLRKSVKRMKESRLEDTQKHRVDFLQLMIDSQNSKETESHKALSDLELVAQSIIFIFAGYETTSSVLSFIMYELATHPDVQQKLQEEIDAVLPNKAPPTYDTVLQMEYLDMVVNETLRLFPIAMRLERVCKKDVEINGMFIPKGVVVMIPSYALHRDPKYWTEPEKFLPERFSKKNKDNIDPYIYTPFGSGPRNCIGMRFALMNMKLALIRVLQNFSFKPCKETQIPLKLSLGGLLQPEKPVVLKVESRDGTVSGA

[7] = target: T3, Steroid hormone receptor ERR1 (Homo sapiens, UniProt P11474)
T3 sequence (P11474 whole entry): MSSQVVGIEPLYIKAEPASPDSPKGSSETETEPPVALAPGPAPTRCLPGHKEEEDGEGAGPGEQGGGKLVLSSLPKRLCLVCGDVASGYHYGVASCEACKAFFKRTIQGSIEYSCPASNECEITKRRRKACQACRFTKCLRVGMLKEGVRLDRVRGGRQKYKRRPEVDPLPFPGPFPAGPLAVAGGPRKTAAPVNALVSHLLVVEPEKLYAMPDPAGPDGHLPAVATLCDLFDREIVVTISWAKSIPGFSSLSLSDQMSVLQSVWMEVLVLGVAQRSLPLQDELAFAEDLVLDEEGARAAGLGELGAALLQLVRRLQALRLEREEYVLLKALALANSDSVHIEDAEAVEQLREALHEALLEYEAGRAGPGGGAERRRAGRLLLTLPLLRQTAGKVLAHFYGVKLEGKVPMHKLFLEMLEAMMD

[8] = target: CYP2C19 (Homo sapiens, UniProt P33261); assay: Inhibition of CYP2C19 in human liver microsomes assessed as reduction in S-mephenytoin 4-hydroxylase activity at 10 uM preincubated for 5 mins followed by NADPH addition and measured after 15 mins by LC-MS/MS analysis relative to control; format: ADME; conditions: probe S-mephenytoin (4-hydroxylation)
CYP2C19, sequence (P33261 whole entry): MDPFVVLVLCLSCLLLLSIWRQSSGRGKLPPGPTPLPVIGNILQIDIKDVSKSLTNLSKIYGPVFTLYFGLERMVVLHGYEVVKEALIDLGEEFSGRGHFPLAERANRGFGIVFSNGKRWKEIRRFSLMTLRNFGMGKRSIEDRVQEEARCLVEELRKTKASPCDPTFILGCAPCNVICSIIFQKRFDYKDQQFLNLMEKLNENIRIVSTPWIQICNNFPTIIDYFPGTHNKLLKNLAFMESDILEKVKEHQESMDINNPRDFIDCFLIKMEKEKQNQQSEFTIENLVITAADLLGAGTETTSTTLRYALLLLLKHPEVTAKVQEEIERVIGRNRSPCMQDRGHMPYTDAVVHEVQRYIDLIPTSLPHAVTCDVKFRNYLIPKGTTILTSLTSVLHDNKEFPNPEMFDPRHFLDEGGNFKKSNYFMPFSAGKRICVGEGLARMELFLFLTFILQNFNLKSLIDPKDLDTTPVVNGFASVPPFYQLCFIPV

[9] = target: T4, Steroid hormone receptor ERR2 (Homo sapiens, UniProt O95718); assay: Binding affinity to ERRbeta (unknown origin) using fluorescein-conjugated coactivator PGC-1alpha incubated for 1 hr by TR-FRET assay
T4 sequence (O95718 whole entry): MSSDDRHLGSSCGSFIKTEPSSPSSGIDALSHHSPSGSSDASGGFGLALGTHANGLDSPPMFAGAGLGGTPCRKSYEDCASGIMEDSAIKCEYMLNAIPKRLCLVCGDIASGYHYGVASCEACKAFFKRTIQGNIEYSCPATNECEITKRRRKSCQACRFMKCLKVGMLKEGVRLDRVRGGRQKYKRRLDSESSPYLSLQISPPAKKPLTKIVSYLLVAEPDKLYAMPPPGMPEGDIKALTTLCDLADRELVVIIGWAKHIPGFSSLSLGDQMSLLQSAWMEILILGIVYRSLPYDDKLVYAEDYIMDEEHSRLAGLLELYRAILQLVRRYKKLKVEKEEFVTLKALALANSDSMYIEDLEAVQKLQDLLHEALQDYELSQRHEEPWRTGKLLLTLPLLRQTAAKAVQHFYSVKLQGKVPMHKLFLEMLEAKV

[10] = Metabolic stability in rat liver microsomes assessed as compound remaining at 1 uM after 30 mins in presence of NADPH regeneration system by LC-MS/MS analysis; format: ADME, Microsome; conditions: read-out: Stability
[11] = Metabolic stability in mouse liver microsomes assessed as compound remaining at 1 uM after 30 mins in presence of NADPH regeneration system by LC-MS/MS analysis; format: ADME, Microsome; conditions: read-out: Stability
[12] = target: CYP2C9 (Homo sapiens, UniProt P11712); assay: Inhibition of CYP2C9 in human liver microsomes assessed as reduction in tolbutamide 4-hydroxylase activity at 10 uM preincubated for 5 mins followed by NADPH addition and measured after 15 mins by LC-MS/MS analysis relative to control; format: ADME; conditions: probe tolbutamide (4-hydroxylation)
CYP2C9, sequence (P11712 whole entry): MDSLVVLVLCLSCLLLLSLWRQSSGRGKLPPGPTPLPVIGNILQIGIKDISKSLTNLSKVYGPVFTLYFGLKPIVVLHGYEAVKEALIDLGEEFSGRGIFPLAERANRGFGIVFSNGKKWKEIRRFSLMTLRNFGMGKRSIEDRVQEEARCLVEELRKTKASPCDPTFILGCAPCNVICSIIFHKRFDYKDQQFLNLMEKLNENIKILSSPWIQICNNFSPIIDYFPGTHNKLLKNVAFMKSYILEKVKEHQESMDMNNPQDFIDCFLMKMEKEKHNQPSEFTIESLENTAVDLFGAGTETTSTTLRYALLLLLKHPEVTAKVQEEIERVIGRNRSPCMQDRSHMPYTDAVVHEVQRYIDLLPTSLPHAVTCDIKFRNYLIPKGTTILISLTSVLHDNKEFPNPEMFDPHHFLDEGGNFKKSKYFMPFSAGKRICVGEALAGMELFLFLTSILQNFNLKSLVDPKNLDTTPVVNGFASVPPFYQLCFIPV

[13] = target: T5, CYP1A2 (Homo sapiens, UniProt P05177); assay: Inhibition of CYP1A2 in human liver microsomes assessed as reduction in phenacetin O-deethylase activity at 10 uM preincubated for 5 mins followed by NADPH addition and measured after 15 mins by LC-MS/MS analysis relative to control; format: ADME; conditions: probe phenacetin (O-deethylation)
T5 sequence (P05177 whole entry): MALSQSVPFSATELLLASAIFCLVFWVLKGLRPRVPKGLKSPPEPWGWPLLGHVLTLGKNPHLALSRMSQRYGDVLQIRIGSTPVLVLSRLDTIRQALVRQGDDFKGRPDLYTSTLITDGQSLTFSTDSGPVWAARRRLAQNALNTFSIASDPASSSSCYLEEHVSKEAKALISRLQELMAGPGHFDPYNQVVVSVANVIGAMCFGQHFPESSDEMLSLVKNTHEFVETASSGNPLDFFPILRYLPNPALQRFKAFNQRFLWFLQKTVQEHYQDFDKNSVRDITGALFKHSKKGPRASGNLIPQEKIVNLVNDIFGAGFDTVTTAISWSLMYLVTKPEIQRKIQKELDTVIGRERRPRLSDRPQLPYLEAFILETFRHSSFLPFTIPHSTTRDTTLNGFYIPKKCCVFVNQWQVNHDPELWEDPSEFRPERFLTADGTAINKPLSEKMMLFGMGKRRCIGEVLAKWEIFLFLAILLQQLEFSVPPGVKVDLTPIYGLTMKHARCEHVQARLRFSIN

[14] = Effective permeability of the compound at 10 uM after 5 hrs by PAMPA; format: ADME; conditions: read-out: Peff

SMILES: CC(C)N1CCN(c2ccc(/C(=C(/CCCO)c3ccccc3)c3ccc(NC(=N)N)cc3)cc2)CC1
- IC50 [1]: > 10000 nM

SMILES: OCCC/C(=C(\c1ccc(O)cc1)c1ccc(N2CCN(C3COC3)CC2)cc1)c1ccccc1
- IC50 [1]: 214 nM

SMILES: CN1CCN(c2ccc(/C(=C(/CCCO)c3ccccc3)c3ccc(OC(=O)C(C)(C)C)cc3)cc2)CC1
- IC50 [1]: 2700 nM

SMILES: CC(C)N1CCN(c2ccc(/C(=C(/CCCO)c3ccccc3)c3cccc(Br)c3)cc2)CC1
- inhibition at 0.25 h, 10 µM [2]: 70.4%
- remaining at 0.5 h, 1 µM [3]: 53.6%
- IC50 [4]: > 10000 nM
- remaining at 0.5 h, 1 µM [5]: 68.4%
- inhibition at 0.25 h, 10 µM [6]: 60.1%
- IC50 [7]: > 10000 nM
- inhibition at 0.25 h, 10 µM [8]: 56.1%
- IC50 [9]: 1440 nM
- remaining at 0.5 h, 1 µM [10]: 53.7%
- remaining at 0.5 h, 1 µM [11]: 31%
- inhibition at 0.25 h, 10 µM [12]: 27%
- inhibition at 0.25 h, 10 µM [13]: 2.5%

SMILES: CN1CCN(c2ccc(/C(=C(/CCCO)c3ccccc3)c3ccc(Br)cc3)cc2)CC1
- IC50 [4]: > 10000 nM
- IC50 [7]: > 10000 nM

SMILES: Cc1ccc(/C(=C(\CCCO)c2ccccc2)c2ccc(N3CCNCC3)cc2)cc1.Cl.Cl
- inhibition at 0.25 h, 10 µM [2]: 38.5%
- Papp at 5 h, 10 µM [14]: 3.61 ×10⁻⁶ cm/s
- remaining at 0.5 h, 1 µM [3]: 44%
- IC50 [4]: > 10000 nM
- remaining at 0.5 h, 1 µM [5]: 58%
- inhibition at 0.25 h, 10 µM [6]: 59.9%
- IC50 [7]: > 10000 nM
- inhibition at 0.25 h, 10 µM [8]: 57.7%
- IC50 [9]: 2100 nM
- remaining at 0.5 h, 1 µM [10]: 71.5%
- remaining at 0.5 h, 1 µM [11]: 28.8%
- inhibition at 0.25 h, 10 µM [12]: 39.3%
- inhibition at 0.25 h, 10 µM [13]: 28.7%

SMILES: CN1CCN(c2ccc(/C(=C(/CCCO)c3ccccc3)c3ccc(N)cc3)cc2)CC1
- IC50 [1]: 140 nM

SMILES: CC(C)N1CCN(c2ccc(/C(=C(/CCCO)c3ccccc3)c3ccc(OS(=O)(=O)C4CC4)cc3)cc2)CC1
- IC50 [1]: 1360 nM

SMILES: CC(C)N1CCN(c2ccc(/C(=C(/CCCO)c3ccccc3)c3ccc(OS(C)(=O)=O)cc3)cc2)CC1
- IC50 [1]: 2630 nM

SMILES: OCCC/C(=C(\c1ccc(O)cc1)c1ccc(N2CCN(C3CCCCC3)CC2)cc1)c1ccccc1
- IC50 [1]: 99 nM
- IC50 [4]: 2120 nM
- IC50 [7]: 9700 nM

SMILES: CN1CCN(c2ccc(/C(=C(/CCCO)c3ccccc3)c3ccc(O)cc3)cc2)CC1
- IC50 [4]: 1700 nM
- IC50 [7]: > 10000 nM
- IC50 [9]: 1980 nM

SMILES: CC(C)N1CCN(c2ccc(/C(=C(/CCCO)c3ccccc3)c3ccc(Br)cc3)cc2)CC1.Cl.Cl
- inhibition at 0.25 h, 10 µM [2]: 28.5%
- Papp at 5 h, 10 µM [14]: 0.37 ×10⁻⁶ cm/s
- remaining at 0.5 h, 1 µM [3]: > 100%
- IC50 [4]: > 10000 nM
- remaining at 0.5 h, 1 µM [5]: 64.4%
- inhibition at 0.25 h, 10 µM [6]: 35.5%
- IC50 [7]: > 10000 nM
- inhibition at 0.25 h, 10 µM [8]: 13.7%
- remaining at 0.5 h, 1 µM [10]: 74.2%
- remaining at 0.5 h, 1 µM [11]: 48.5%
- inhibition at 0.25 h, 10 µM [12]: 3.1%
- inhibition at 0.25 h, 10 µM [13]: 6.5%
